Reference: patent US7411083B2, “Substituted acetic acid derivatives” (Wyeth, priority 2003, dated 2008)

Tests used:
[1] = target: T1, recombinant human plasminogen activator inhibitor-1 (PAI-1) (Homo sapiens, UniProt P05121); assay: Screening for PAI-1 inhibition (residual tPA activity, Spectrozyme-tPA chromogenic substrate); assay type: biochemical; conditions: test compound at 100 Um; pH 6.6 buffer, 140 nM PAI-1, 70 nM tPA
T1 construct: purchased Molecular Innovations, Royal Oak, Mich
In short: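 PAI-1 at 140 nM, pH 6.6 buffer, preincubated 1 h at room temperature with compound (1-100 μM final, ≤0.2% DMSO), then 70 nM tPA added for 30 min. Residual tPA activity read by Spectrozyme-tPA absorbance at 405 nm at 0 and 60 min. Inhibition taken as residual tPA activity.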

human PAI-1 = human PAI-1 (Homo sapiens, UniProt P05121); assay: Assay for determining the IC50 of inhibition of PAI-1 (active PAI-1 bound to tPA-coated plate, 33B8 antibody detection); assay type: biochemical; conditions: values carry suffix (K), not explained; test compounds 1-50 μM, pH 7.5
human PAI-1, sequence (P05121 24-402): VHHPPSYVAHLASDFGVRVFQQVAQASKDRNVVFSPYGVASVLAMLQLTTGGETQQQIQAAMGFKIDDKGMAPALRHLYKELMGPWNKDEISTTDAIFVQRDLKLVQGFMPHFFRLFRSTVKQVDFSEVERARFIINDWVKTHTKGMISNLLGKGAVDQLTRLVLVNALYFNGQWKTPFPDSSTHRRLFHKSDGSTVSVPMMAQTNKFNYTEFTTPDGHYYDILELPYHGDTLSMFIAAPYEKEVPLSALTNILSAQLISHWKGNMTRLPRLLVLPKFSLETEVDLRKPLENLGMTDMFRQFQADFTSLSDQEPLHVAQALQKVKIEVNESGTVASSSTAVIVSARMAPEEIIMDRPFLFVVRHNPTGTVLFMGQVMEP
Procedure: Assay for determining the IC50 of inhibition of PAI-1. This assay is based upon the non-SDS dissociable interaction between Tpa and active PAI-1. Assay plates are initially coated with human Tpa (10 μg/ml). Test compounds are dissolved in DMSO at 10 Mm, then diluted with physiologic buffer (Ph 7.5) to a final concentration of 1-50 μM. The test compounds are incubated with human PAI-1 (50 ng/ml) for 15 minutes at room temperature. The Tpa-coated plate is washed with a solution of 0.05% Tween 20 and 0.1% BSA, then the plate is blocked with a solution of 3% BSA. An aliquot of the test compound/PAI-1 solution is then added to the Tpa-coated plate, incubated at room temperature for 1 hour, and washed. Active PAI-1 bound to the plate is assessed by adding an aliquot of a 1:1000 dilution of the 33B8 monoclonal antibody against human PAI-1, and incubating the plate at room temperature for 1 hour (Molecular Innovations, Royal Oak, Mich.). The plate is again washed, and a solution of goat anti-mouse IgG-alkaline phosphatase conjugate is added at a 1:50,000 dilution in goat serum. The plate is incubated 30 minutes at room temperature, washed, and a solution of alkaline phosphatase substrate is added. The plate is incubated 45 minutes at room temperature, and color development is determined at OD405 nm. The quantitation of active PAI-1 bound to Tpa at varying concentrations of the test compound is used to determine the IC50. Results are analyzed using a logarithmic best-fit equation. The assay sensitivity is 5 ng/ml of human PAI-1 as determined from a standard curve ranging from 0-100 ng/ml.

T1 sequence (P05121 24-402): as above

Row | Compound | inhibition at 100 µM [1] [%] | IC50 (human PAI-1) [µM]
1 | Cn1cc(/C=N/OCC(=O)O)c2cc(OCc3ccc(C(F)(F)F)cc3)ccc21 [Compound 32, ({[(1E)-(1-methyl-5-{[4-(trifluoromethyl)benzyl]oxy}-1H-indol-3-yl)methylidene]amino}oxy)acetic acid] | 82 | 9.36
2 | O=C(O)CO/N=C/c1cn(Cc2ccccc2)c2ccc(OCc3ccc(C(F)(F)F)cc3)cc12 [Compound 3, ({[(1E)-(1-benzyl-5-{[4-(trifluoromethyl)benzyl]oxy}-1H-indol-3-yl)methylidene]amino}oxy)acetic acid] | 82 | 1.85
3 | O=C(O)CO/N=C/c1cn(Cc2ccccc2)c2ccc(OCc3ccc(Br)cc3)cc12 [Compound 9, {[((1E)-{1-benzyl-5-[(4-bromobenzyl)oxy]-1H-indol-3-yl}methylidene)amino]oxy}acetic acid] | 85 | 16.9
